Drawing on PubChem BioAssay AID248 (DTP/NCI, 2004), this text covers T/C for 13 compounds.

This assay concerns L1210 leukemia ip in BDF1 mice, survival T/C. Put plainly: NCI In Vivo Anticancer Drug Screen. Data for tumor model L1210 Leukemia (intraperitoneal) in B6D2F1 (BDF1) mice. To be noted: endpoint: mean survival time, higher = longer survival. Summed up:
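Transplantable tumor model; survival measured in treated vs vehicle control mice. Value = treated/control.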

The mark [1] stands for this setting: dose: 100.0 mg/kg/injection, schedule: Q01DX009 (ip), vehicle: saline.
Setting [2] is: dose: 200.0 mg/kg/injection, schedule: Q01DX009 (ip), vehicle: saline.
[3] abbreviates: dose: 200.0 mg/kg/injection, schedule: Q04DX003 (ip), vehicle: saline.
[4] abbreviates: dose: 100.0 mg/kg/injection, schedule: Q01DX009 (ip), vehicle: Klucel (hydroxypropylcellulose) (HPC).
The mark [5] stands for this setting: dose: 100.0 mg/kg/injection, schedule: Q04DX003 (ip), vehicle: Klucel (hydroxypropylcellulose) (HPC).
Where [6] appears, read: dose: 200.0 mg/kg/injection, schedule: Q01DX009 (ip), vehicle: Klucel (hydroxypropylcellulose) (HPC).
[7] abbreviates: dose: 400.0 mg/kg/injection, schedule: Q04DX003 (ip), vehicle: Klucel (hydroxypropylcellulose) (HPC).
Where [8] appears, read: dose: 25.0 mg/kg/injection, schedule: Q01DX009 (ip), vehicle: Klucel (hydroxypropylcellulose) (HPC).
Where [9] appears, read: dose: 100.0 mg/kg/injection, schedule: Q01DX001 (ip), vehicle: saline.
The mark [10] stands for this setting: dose: 200.0 mg/kg/injection, schedule: Q01DX001 (ip), vehicle: saline.
Where [11] appears, read: dose: 400.0 mg/kg/injection, schedule: Q01DX001 (ip), vehicle: carboxymethylcellulose (CMC).

Values joined by “and” are separate entries in the source; they are usually repeats but may differ in a detail not shown here. Identical values can stand only once. Toxic doses and inconclusive results are not listed.

Turning to `C1[CH2][Hg][CH2]CO1`, the T/C was 100 % of control (dose: 100.0 mg/kg/injection, schedule: Q04DX002 (ip), vehicle: saline) and 100 % of control (dose: 200.0 mg/kg/injection, schedule: Q04DX002 (ip), vehicle: saline).

Consider `O=C(Nc1ccc([N+](=O)[O-])cc1)OCC(COc1ccccc1)OC(=O)Nc1ccc([N+](=O)[O-])cc1` (stereo unspecified), for which the T/C was 100 % of control (dose: 100.0 mg/kg/injection, schedule: Q01DX001 (ip), vehicle: other); 89 % of control (dose: 200.0 mg/kg/injection, schedule: Q01DX001 (ip), vehicle: other); 100 % of control (dose: 400.0 mg/kg/injection, schedule: Q01DX001 (ip), vehicle: other).

As for `CCN1CC1` (tested in a mixture with another compound), the T/C was 101 % of control (dose: 1.56 mg/kg/injection, schedule: Q01DX001 (ip), vehicle: Klucel (hydroxypropylcellulose) (HPC)); 99 % of control (dose: 3.12 mg/kg/injection, schedule: Q01DX001 (ip), vehicle: Klucel (hydroxypropylcellulose) (HPC)); 104 % of control (dose: 6.25 mg/kg/injection, schedule: Q01DX001 (ip), vehicle: Klucel (hydroxypropylcellulose) (HPC)); 111 % of control (dose: 25.0 mg/kg/injection, schedule: Q01DX001 (ip), vehicle: other).

With `Cc1cc(Cl)c2cc(Cl)cc(Cl)c2n1`, the T/C runs as follows: under setting [1], 89 % of control; (dose: 100.0 mg/kg/injection, schedule: Q04DX003 (ip), vehicle: saline) 91 % of control; under setting [2], 96 % of control; under setting [3], 89 % of control; (dose: 400.0 mg/kg/injection, schedule: Q04DX003 (ip), vehicle: saline) 94 % of control.

On to `Cc1ccnc(SCC(=O)O)n1`, for which the T/C under setting [4] was 108 % of control; the T/C under setting [5] is 96 % of control; the T/C under setting [6] is 95 % of control; the T/C (dose: 200.0 mg/kg/injection, schedule: Q04DX003 (ip), vehicle: Klucel (hydroxypropylcellulose) (HPC)) was 96 % of control; the T/C (dose: 400.0 mg/kg/injection, schedule: Q01DX009 (ip), vehicle: Klucel (hydroxypropylcellulose) (HPC)) is 90 % of control; the T/C under setting [7] was 95 % of control.

`CC1(C)N=C(N)N=C(N)N1c1ccc(CCCCc2ccc(S(=O)(=O)F)cc2Cl)c(Cl)c1`: the T/C is 102 % of control (dose: 3.12 mg/kg/injection, schedule: Q01DX009 (ip), vehicle: Klucel (hydroxypropylcellulose) (HPC)); 97 % of control (dose: 3.12 mg/kg/injection, schedule: Q04DX003 (ip), vehicle: Klucel (hydroxypropylcellulose) (HPC)); 100 % of control (dose: 6.25 mg/kg/injection, schedule: Q01DX009 (ip), vehicle: Klucel (hydroxypropylcellulose) (HPC)); 116 % of control (dose: 6.25 mg/kg/injection, schedule: Q01DX009 (ip), vehicle: saline); 105 % of control (dose: 6.25 mg/kg/injection, schedule: Q04DX003 (ip), vehicle: Klucel (hydroxypropylcellulose) (HPC)); 111 % of control (dose: 7.26 mg/kg/injection, schedule: Q01DX009 (ip), vehicle: saline). The T/C reads like this: (dose: 7.26 mg/kg/injection, schedule: Q04DX003 (ip), vehicle: saline) 115 % of control; (dose: 10.89 mg/kg/injection, schedule: Q01DX009 (ip), vehicle: saline) 117 % of control; (dose: 12.5 mg/kg/injection, schedule: Q01DX009 (ip), vehicle: Klucel (hydroxypropylcellulose) (HPC)) 105 % of control; (dose: 12.5 mg/kg/injection, schedule: Q04DX003 (ip), vehicle: Klucel (hydroxypropylcellulose) (HPC)) 105 % of control; (dose: 24.0 mg/kg/injection, schedule: Q01DX009 (ip), vehicle: saline with Tween-80) 122 % of control; under setting [8], 107 % of control and 122 % of control. Further, the T/C reads like this: (dose: 25.0 mg/kg/injection, schedule: Q04DX003 (ip), vehicle: Klucel (hydroxypropylcellulose) (HPC)) 115 % of control; (dose: 50.0 mg/kg/injection, schedule: Q04DX003 (ip), vehicle: Klucel (hydroxypropylcellulose) (HPC)) 112 % of control; (dose: 75.0 mg/kg/injection, schedule: Q01DX009 (ip), vehicle: saline with Tween-80) 98 % of control; (dose: 75.0 mg/kg/injection, schedule: Q01DX009 (ip), vehicle: saline) 116 % of control; under setting [1], 88 % of control; under setting [5], 118 % of control. Besides, the T/C by setting is: (dose: 150.0 mg/kg/injection, schedule: Q01DX009 (ip), vehicle: saline) 96 % of control; (dose: 150.0 mg/kg/injection, schedule: Q04DX003 (ip), vehicle: saline with Tween-80) 117 % of control; under setting [6], 109 % of control; under setting [3], 120 % of control; (dose: 300.0 mg/kg/injection, schedule: Q01DX009 (ip), vehicle: saline) 98 % of control; (dose: 300.0 mg/kg/injection, schedule: Q04DX003 (ip), vehicle: Klucel (hydroxypropylcellulose) (HPC)) 152 % of control. The T/C runs as follows: (dose: 300.0 mg/kg/injection, schedule: Q04DX003 (ip), vehicle: saline) 152 % of control; under setting [7], 113 % of control; (dose: 450.0 mg/kg/injection, schedule: Q04DX003 (ip), vehicle: saline) 111 % of control.

As to `Cc1cc(O)cc(=O)[nH]1`, the T/C runs as follows: under setting [9], 97 % of control; under setting [10], 100 % of control.

Take `OCCCc1cc(Br)ccc1O`: the T/C by setting is: (dose: 50.0 mg/kg/injection, schedule: Q01DX001 (ip), vehicle: carboxymethylcellulose (CMC)) 105 % of control; (dose: 100.0 mg/kg/injection, schedule: Q01DX001 (ip), vehicle: carboxymethylcellulose (CMC)) 100 % of control; (dose: 200.0 mg/kg/injection, schedule: Q01DX001 (ip), vehicle: carboxymethylcellulose (CMC)) 100 % of control; under setting [11], 92 % of control.

As for `CCO/C=C1\SC(=S)N(c2cccc(O)c2)C1=O`, the T/C is, setting by setting: under setting [8], 86 % of control; (dose: 50.0 mg/kg/injection, schedule: Q01DX009 (ip), vehicle: Klucel (hydroxypropylcellulose) (HPC)) 113 % of control; under setting [4], 93 % of control.

In the case of `COc1cc2c(cc1OCc1ccccc1)C(C#N)N(C(=O)c1ccccc1)C=C2` (stereo unspecified), the T/C is, setting by setting: (dose: 25.0 mg/kg/injection, schedule: Q01DX009 (ip), vehicle: saline) 98 % of control; (dose: 50.0 mg/kg/injection, schedule: Q01DX009 (ip), vehicle: saline) 100 % of control; under setting [1], 93 % of control; under setting [2], 86 % of control.

Take `O=C(Oc1cccc([N+](=O)[O-])c1)c1ccc([N+](=O)[O-])cc1O`: the T/C under setting [9] is 95 % of control; the T/C under setting [10] is 95 % of control; the T/C (dose: 400.0 mg/kg/injection, schedule: Q01DX001 (ip), vehicle: saline) is 97 % of control.

With `O=c1ccc2cc(OC3OC(CO)C(O)C(O)C3O)c(O)cc2o1` (stereo unspecified), the T/C reads like this: (dose: 62.5 mg/kg/injection, schedule: Q01DX015 (ip), vehicle: carboxymethylcellulose (CMC)) 95 % of control; (dose: 125.0 mg/kg/injection, schedule: Q01DX015 (ip), vehicle: carboxymethylcellulose (CMC)) 105 % of control; (dose: 250.0 mg/kg/injection, schedule: Q01DX015 (ip), vehicle: carboxymethylcellulose (CMC)) 100 % of control; under setting [11], 111 % of control; (dose: 600.0 mg/kg/injection, schedule: Q01DX001 (ip), vehicle: carboxymethylcellulose (CMC)) 90 % of control; (dose: 800.0 mg/kg/injection, schedule: Q01DX001 (ip), vehicle: carboxymethylcellulose (CMC)) 92 % of control. Further, the T/C (dose: 1000.0 mg/kg/injection, schedule: Q01DX001 (ip), vehicle: carboxymethylcellulose (CMC)) was 101 % of control.

In the case of `COc1cc([N+](=O)[O-])ccc1N`, the T/C is, setting by setting: (dose: 100.0 mg/kg/injection, schedule: Q01DX009 (ip), vehicle: saline sonified) 116 % of control; (dose: 100.0 mg/kg/injection, schedule: Q04DX003 (ip), vehicle: saline with Tween-80) 105 % of control; (dose: 200.0 mg/kg/injection, schedule: Q01DX009 (ip), vehicle: saline sonified) 95 % of control; (dose: 200.0 mg/kg/injection, schedule: Q04DX003 (ip), vehicle: saline with Tween-80) 105 % of control; (dose: 400.0 mg/kg/injection, schedule: Q01DX009 (ip), vehicle: saline sonified) 104 % of control; (dose: 400.0 mg/kg/injection, schedule: Q04DX003 (ip), vehicle: saline with Tween-80) 115 % of control.
